# Reference: patent publication US5463107A, “Triterpene derivatives and endothelin-receptor antagonists containing the same” (Shionogi & Co., Ltd., priority 1993, dated 1995)
# Where two headings read alike, the source gives them in different places.
# Columns and labels:
# [1] = target: T1, endothelin receptor (smooth muscle A7r5 cells derived from rat aorta) (Rattus norvegicus, UniProt P26684); assay: Inhibitory effect on the binding of 125I-endothelin-1 to its receptor (rat aorta smooth muscle A7r5 cells); details: 25 pM 125I-endothelin-1, 37° C., 1 hr, read-out: IC50 binding: 50% inhibition of the specific binding of 125I-endothelin-1 to its receptor
# T1 construct: Smooth muscle A7r5 cells derived from rat aorta; endogenous in cells; host or cells: A7r5 (rat aortic smooth muscle)
# T1 sequence (P26684 21-426): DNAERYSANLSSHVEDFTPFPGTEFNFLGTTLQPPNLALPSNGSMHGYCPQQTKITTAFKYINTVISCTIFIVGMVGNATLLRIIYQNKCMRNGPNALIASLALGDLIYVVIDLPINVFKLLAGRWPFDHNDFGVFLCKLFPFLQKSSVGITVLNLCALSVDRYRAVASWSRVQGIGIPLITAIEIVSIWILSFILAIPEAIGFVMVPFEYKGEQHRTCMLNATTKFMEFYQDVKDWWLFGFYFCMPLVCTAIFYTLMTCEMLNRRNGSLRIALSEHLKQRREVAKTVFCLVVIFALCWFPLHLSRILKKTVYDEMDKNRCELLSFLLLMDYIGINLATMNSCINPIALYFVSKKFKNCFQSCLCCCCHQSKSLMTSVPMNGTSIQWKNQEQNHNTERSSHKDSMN
# Description: Inhibitory Effect on the Binding of ^125 I-Endothelin-1 to its Receptor
# Smooth muscle A7r5 cells derived from rat aorta were incubated with 25 pM ^125 I-endothelin-1 at 37° C. for 1 hr in the presence or absence of a compound (I) of the present invention. After completion of the reaction, ^125 I-endothelin-1 bound to membrane fraction was separated by filtrating through glass fiber filters and the radioactivity was determined with a gamma-counter. The specific binding was calculated by subtracting the nonspecific binding which was determined in the presence of 10^-7 M non-radioactive endothelin-1 from the total binding.
# [2] = tested on: endothelin-1-induced increase in cytosolic calcium ion concentration, rat aortic smooth muscle A7r5 cells; assay: Inhibition of the endothelin-1-induced increase in cytosolic calcium ion concentration in A7r5 cells; format: cell-based; details: fura-2, compound 1 min before 10^-8 M endothelin-1, read-out: IC50 (Ca^2+): inhibition of endothelin-1-induced increase in cytosolic calcium concentration
# Description: Inhibition of the Endothelin-1-induced Increase in Cytosolic Calcium Ion Concentration
# To a cuvette was put a suspension of rat aortic smooth muscle A7r5 cells (Dainippon Pharmaceutical Co., Ltd.) on which 2 μM fura-2 (Dojin) has been loaded. The change in fluorescence intensity was determined with a calcium analyzer (CAF100, Nippon Bunkou Co.). In the determination, the excitation was performed at 340 nm and 380 nm and the recording at 510 nm. The cytosolic calcium concentration was calculated according to the method of Grynkiewicz et al., J. Biol. Chem., 260., pp. 3440-3450, 1985.
# The experiment was carried out by adding a compound (I) of the present invention to the cell suspension in cuvette, incubating for 1 min, adding 10^-8 M endothelin-1, and measuring the change in fluorescence intensity.
# [3] = target: T2, endothelin-1-induced contraction, isolated rat thoracic aorta (Rattus norvegicus, UniProt P26684); assay: Inhibition of endothelin-1-induced contraction in isolated rat thoracic aorta; details: 10^-8, 3×10^-8, 10^-7 M, 10 min, 37° C.
# T2 construct: specimens isolated from rat thoracic aorta; from tissue; host or cells: rat thoracic aorta, transverse strips
# T2 sequence (P26684 21-426): T1 sequence (P26684 21-426)
# Description: Inhibition of Endothelin-1-induced Contradiction in Isolated Rat Thoracic Aorta
# Transverse Stip specimens isolated from rat thoracic aorta were suspended in modified Locke-Ringer solution at 37° C. while aerating with mixed gas (95% O2 +5% CO2), and the isometric tension was recorded. Four specimens derived from each rat were used in the test. Thus, three specimens were treated with compound 1c (disodium salt; prepared in Example 1 or 3) of different concentration (10^-8 M, 3×10^-8 M, and 10^-7 M) for 10 min and the rest was untreated before the measurement of isometric tension.
# [4] = tested on: endothelin-1-induced hypertension, pithed rat; assay: Inhibition of endothelin-1-induced hypertension in pithed rat; format: in vivo; details: intravenous, dose between 0.01 and 1 mg/kg
# Description: Inhibition of Endothelin-1-induced Hypertension in Pithed Rat
# Under ether anesthesia, a stainless-steal rod (diameter: 2 mm) was inserted from right orbital to spinal end of a rat. The resultant pithed rat was placed under artificial respiration and the change in blood pressure was recorded. Drugs (endothelin-1 and compound 1c prepared in Example 1 or 3) were administered intravenously.
Compound,IC50 [1] [nM],IC50 ([2]; Rattus norvegicus) [nM],shift of endothelin-1 concentration-contraction curve [3],"Kb ([3]; read-out: pA2 value, endothelin-1 concentration-contraction curve (converted)) [nM]",IC50 [2] [nM],decrease of blood pressure [4]
"CC1(C)CC[C@]2(C(=O)O)CC[C@]3(COC(=O)/C=C/c4cc(O)ccc4NC(=O)/C=C/C(=O)O)C(=CCC4[C@@]5(C)CCC(=O)C(C)(C)C5CC[C@]43C)[C@@H]2C1 (single isomer, unassigned) [Compound 1b]",0.5,2.6,–,–,–,–
CC1(C)CC[C@]2(C(=O)O)CC[C@]3(COC(=O)/C=C/c4cc(O)ccc4NC(=O)CCC(=O)O)C(=CCC4[C@@]5(C)CCC(=O)C(C)(C)C5CC[C@]43C)[C@@H]2C1 (stereo partly drawn) [Compound 1e],3.6,3.5,–,–,–,–
CC1(C)CC[C@]2(C(=O)O)CC[C@]3(COC(=O)/C=C/c4cc(O)ccc4N)C(=CCC4[C@@]5(C)CCC(=O)C(C)(C)C5CC[C@]43C)[C@@H]2C1 (stereo partly drawn) [Compound 1a],24,4.5,–,–,–,–
"CC1(C)CC[C@]2(C(=O)O)CC[C@]3(COC(=O)/C=C/c4ccc(O)c(O)c4)C(=CCC4[C@@]5(C)CCC(=O)C(C)(C)C5CC[C@]43C)[C@@H]2C1 (stereo partly drawn) [Compound 50-235, reference compound]",76,10,–,–,–,–
CC1(C)CC[C@]2(C(=O)O)CC[C@]3(COC(=O)/C=C/c4cc(O)ccc4NS(=O)(=O)O)C(=CCC4[C@@]5(C)CCC(=O)C(C)(C)C5CC[C@]43C)[C@@H]2C1 (stereo partly drawn) [Compound 1k],2.9,2.8,–,–,–,–
CC1(C)CC[C@]2(C(=O)O)CC[C@]3(COC(=O)/C=C/c4cc(O)ccc4NC(=O)CC(=O)O)C(=CCC4[C@@]5(C)CCC(=O)C(C)(C)C5CC[C@]43C)[C@@H]2C1 (stereo partly drawn) [Compound 1h],9,5.6,–,–,–,–
COC(=O)/C=C/C(=O)Nc1ccc(O)cc1/C=C/C(=O)OC[C@@]12CC[C@@]3(C(=O)O)CCC(C)(C)C[C@H]3C1=CCC1[C@@]3(C)CCC(=O)C(C)(C)C3CC[C@]12C (stereo partly drawn) [Compound 1m],5,2.7,–,–,–,–
CC1(C)CC[C@]2(C(=O)O)CC[C@]3(COC(=O)/C=C/c4cc(O)ccc4NC(=O)C(=O)O)C(=CCC4[C@@]5(C)CCC(=O)C(C)(C)C5CC[C@]43C)[C@@H]2C1 (stereo partly drawn) [Compound 1g],1.8,2.5,–,–,–,–
"CC1(C)CC[C@]2(C(=O)O)CC[C@]3(COC(=O)/C=C/c4cc(O)ccc4NC(=O)/C=C/C(=O)O)C(=CCC4[C@@]5(C)CCC(=O)C(C)(C)C5CC[C@]43C)[C@@H]2C1 (single isomer, unassigned) [Compound 1c]",0.7,–,shifts the concentration-contradiction curve to right in a concentration-dependent manner,1.58,2.6,decreased the blood pressure in a dose-dependent manner
CC1(C)CC[C@]2(C(=O)O)CC[C@]3(COC(=O)/C=C/c4cc(O)ccc4NC(=O)CCCC(=O)O)C(=CCC4[C@@]5(C)CCC(=O)C(C)(C)C5CC[C@]43C)[C@@H]2C1 (stereo partly drawn) [Compound 1i],6.6,4.6,–,–,–,–
CC1(C)CC[C@]2(C(=O)O)CC[C@]3(COC(=O)/C=C/c4cc(O)ccc4NC(=O)/C=C\C(=O)O)C(=CCC4[C@@]5(C)CCC(=O)C(C)(C)C5CC[C@]43C)[C@@H]2C1 (stereo partly drawn) [Compound 1d],3.4,3,–,–,–,–
CC1(C)CC[C@]2(C(=O)O)CC[C@]3(COC(=O)/C=C/c4cc(O)ccc4NCC(=O)O)C(=CCC4[C@@]5(C)CCC(=O)C(C)(C)C5CC[C@]43C)[C@@H]2C1 (stereo partly drawn) [Compound 1n],3,3,–,–,–,–
